The text below walks through data of patent publication US20170182070A1, “Controlled Release Doxycycline” (Mayne Pharma International Pty Ltd., priority 2014, published 2017).

Data set [1] can be described thus: In vitro dissolution/release profile, USP <711> Apparatus 1 (baskets). The data set is classed as physicochemical. How it is done:
For the purposes of in vitro testing, a release or dissolution profile may be determined at pH 1.2 using a 0.06 N hydrochloric acid solution, at pH 4.5 using a phosphate buffer using USP <711> test conditions, and at pH 5.0 using a buffer using USP <711> test conditions. Such test conditions can be carried out according to USP <711> dissolution conditions using Apparatus 1 (baskets) in 900 mL of media with stirring at 50 RPM. The in vitro release of the pellets was tested using USP XXIV 2000—Apparatus 1 (baskets). See, e.g., Riaz Uddin, Nadia Saffoon, and Kumar Bishwajit Sutradhar, “Dissolution and Dissolution Apparatus: A Review,” Int. J. Cur. Biomed. Phar. Res., 2011, Vol. 1(4), pgs. 201-207. The acid environment dissolution profile of pellet A and B's formulation can be seen in FIG. 1. The dissolution profile of pellet A and B formulations at elevated pH can be seen in FIG. 2.

A short description of data set [2]: Physicochemical properties of doxycycline forms.
A short description of data set [3]: Population pharmacokinetic model of doxycycline plasma concentrations, pooled phase 1 data (Example 8). The data set is classed as in vivo, human. How it is done:
Pharmacokinetic data were available from eight phase 1 clinical trials conducted by Mayne Pharma International. These studies assessed doxycycline plasma concentrations following oral administration of either a 100 mg conventional release doxycycline hyclate capsule, a 75/100/150 or 200 mg Doryx® Delayed-Release tablet or a 120 mg Doryx MPC® Delayed-Release tablet in healthy subjects. For the remainder of the Specification's Example 8, conventional release doxycycline hyclate capsules will be referred to as Doryx capsules, the Doryx® Delayed-Release tablets will be referred to as Doryx tablets, and Doryx MPC® Delayed-Release tablets (formulation code MP336) will be referred to as Doryx MPC.
The available phase 1 clinical trials included six single dose two treatment period studies assessing the influence of formulation or the fed/fasted state on doxycycline concentrations. Two trials were multi-dose studies; with one a single treatment period study and the other a two treatment period study assessing doxycycline plasma concentrations following Doryx capsule or Doryx tablet administration. All studies were conducted in the United States. […] The design and dosing schedules are summarized in […].3. The available studies were assigned a local identifier during model development (10, 20, 30, 40, 50, 60, 70, and 80), as indicated in […].3, and will be referred to by these numbers for the remainder of the Specification.
Studies 10, 20, 30, 50, 60 and 80 were single-dose studies and plasma samples were acquired at nominal times approximate to 0, 0.25, 0.5, 1, 1.5, 2, 2.5, 3, 3.5, 4, 6, 8, 10, 12, 16, 24, 36, 48, 72 and 96 hours after the dose on day 1 of that period. Study 40 was a single treatment period multi-dose study, where participants were dosed 7 times at 24 hour intervals and plasma samples were collected at nominal times of 0, 0.25, 0.5, 1, 1.5, 2, 2.5, 3, 4, 6, 8, 10, 12, 16, 24, 144, 144.25, 144.5, 145, 145.5, 146, 146.5, 147, 148, 150, 152, 156, 160, 168, 180, 192, 216 and 240 hours after the dose on day 1. Study 70 was a two treatment period multi-dose study, where doses were given at 0, 72, 96, 120, 144 and 168 hours after the start of treatment, and plasma samples were collected at nominal times of 0, 0.25, 0.5, 1, 1.5, 2, 2.5, 3, 4, 6, 8, 10, 12, 16, 24, 36, 48, 72, 96, 120, 144, 168, 168.25, 168.5, 169, 169.5, 170, 170.5, 171, 172, 174, 176, 180, 184, 192, 204, 216 and 240 hours after the dose on day 1. Deviations between nominal sampling times and actual sample times were recorded, and the actual times were used during model development. Covariates describing fed status, formulation, sex, age, race, weight, body mass index (BMI), smoking status and study number were available for each individual.
Doxycycline plasma concentrations were measured using validated high performance liquid chromatographic methods, with the lower limits of quantification (LLOQ) of the assays indicated in […].3. All subjects with evaluable pharmacokinetic data were included in the analysis. All studies were conducted according to the International Conference of Harmonisation (ICH) guidelines for good clinical practice, the Declaration of Helsinki on the ethical conduct of medical research, and applicable regulatory requirements. Each subject signed and dated a written informed consent before study participation.
The base model was developed in a step-wise manner. Pharmacokinetic models were coded using the ADVAN5 subroutines of NONMEM. Linear kinetic models with 1, 2 and 3 compartments were evaluated, with absorption models including simple first-order absorption and “transit compartment” models with up to 5 absorption transit compartments assessed. The parameter KTR (transit absorption rate) was used to describe the first-order movement through these absorption compartments. The First Order Conditional Estimation (FOCE) method was used to fit models. […]

For data set [4] the following is noted: cited from earlier work.
The conditions of data set [5]: cited from earlier work. The source holds these as a separate data set.
A further data set concerns Plasmodium falciparum. The following applies: cited from earlier work.

Where a name gives a salt, the structure may show the parent alone. Read-outs that look alike come from different tables or passages of the source.

Turning to `C[C@H]1c2cccc(O)c2C(=O)C2=C(O)[C@]3(O)C(=O)C(C(N)=O)=C(O)[C@@H](N(C)C)[C@@H]3[C@@H](O)[C@@H]21` [doxycycline monohydrate salt], the release rates overall result in data set [1] (FIG. 5) is “low release rates overall”. Besides, the release result in data set [1] (acidic conditions (FIG. 5)) is “releases readily”. For the same molecule, the solubility result is “very soluble” in data set [2] (lower pH values (FIG. 5)) and “not very soluble” in data set [2] (pH above 3 (FIG. 5)).

Consider `C[C@H]1c2cccc(O)c2C(=O)C2=C(O)[C@]3(O)C(=O)C(C(N)=O)=C(O)[C@@H](N(C)C)[C@@H]3[C@@H](O)[C@@H]21` [doxycycline, (4S,4aR,5S,5aR,6R,12aS)-4-(dimethylamino)-3,5,10,12,12a-pentahydroxy-6-methyl-1,11-dioxo-1,4,4a,5,5a,6,11,12a-octahydrotetracene-2-carboxamide], for which, in data set [3] (final model parameter estimate), the “CL, Clearance” value is 4.63 L/h/70 kg FFM; the “CLP1, Intercompartmental clearance” value is listed as 11.3 L/h/70 kg FFM; the “KTR, Transit compartment rate constant” value was 2 h⁻¹; the “V, Central distribution volume” value is given as 55.2 L/70 kg FFM. The “VP1, Peripheral distribution volume” value in data set [3] (final model parameter estimate) is reported as 49.8 L/70 kg FFM. The “FTLAG2, lag on KTR (absorption) for the fed status” value in data set [3] (final model, formulation non-specific) is 0.203 h. For the same molecule, in data set [3] (human, plasma, oral, final model parameter estimate, read-out: COVFEDF, Effect of food on relative bioavailability), the Fed-state decrease in relative bioavailability was 10.5%. In data set [3] (in vivo), the “female sex increase in clearance” value is given as 14.4%. Moreover, the “fed status decrease in relative bioavailability (F)” value in data set [3] (irrespective of formulation) was 10.5%. For the same molecule, the peak serum level in data set [4] (200 mg dose, at 2 hours, normal adult volunteers) is 2.6 µg/mL. The serum level in data set [4] (200 mg dose, at 24 hours) was 1450 ng/mL. Moreover, the “absorption after oral administration” value in data set [4] (in vivo, po) is “virtually completely absorbed”. The half-life result in data set [4] (in vivo) is “approximately 18 hours”. For the same molecule, the “excretion by the kidney” value in data set [4] (normal function (creatinine clearance about 75 mL/min)) was “about 40 %/72 hours”. Further, the “excretion by the kidney” value in data set [4] (severe renal insufficiency (creatinine clearance below 10 mL/min)) is given as 1-5 %/72 hours. Moreover, the lipid solubility result in data set [5] was “high degree of lipid solubility”. Moreover, in the data set on Plasmodium falciparum, the “activity against asexual erythrocytic forms” value is on record as “active” and the activity against gametocytes result is recorded as “not against the gametocytes”.

In the case of `CC1c2cccc(O)c2C(=O)C2=C(O)[C@]3(O)C(=O)C(C(N)=O)=C(O)[C@@H](N(C)C)[C@@H]3[C@@H](O)[C@@H]21` (stereo partly drawn) [Doxycycline hyclate, [4S(4aR,5S,5aR,6R,12aS)]-4-(dimethylamino)-1,4,4a,5,5a,6,11,12a-octahydro-3,5,10,12,12a-pentahydroxy-6-methyl-1,11-deoxonapthtacene-2-carboxamide monohydrochloride, compound with ethyl alcohol (2:1), monohydrate], the solubility result in data set [5] is “soluble in water and in solutions of alkali hydroxides and carbonates”.
